The values that follow are results of earlier work, collected in patent US20250235471A1, “OIL-IN-WATER EMULSION FOR INHALATION ADMINISTRATION COMPRISING CANNABIDIOL(CBD)” (Incannex Healthcare Limited, priority 2021, published 2025).

As usually defined, the aqueous solubility is the concentration that dissolves in the medium under given conditions.

Where only a bound is given, the exact number is not on record here.

With `C=C(C)[C@@H]1CCC(C)=C[C@H]1c1c(O)cc(CCCCC)cc1O` [CBD, cannabidiol], the aqueous solubility was less than 0.01 mg/mL. In addition, the “estimated oil/water partition coefficient (Log P)” value (estimated) was 6-7.
